Earlier results, collected in US7189730B2, “A2A adenosine receptor antagonists” (CV Therapeutics, Inc., priority 2001, dated 2007).

Assays:
[1] = system: haloperidol-induced catalepsy; conditions: rat; Mandhane et al. 1997
[2] = system: Parkinson's patients
[3] = system: experimentally induced cataleptic responses; conditions: in vivo

Structure (SMILES): N[C@@H](Cc1ccc(O)c(O)c1)C(=O)O [L-DOPA]
- effect on haloperidol-induced catalepsy [1]: block

Structure (SMILES): Cn1c(=O)c2[nH]cnc2n(C)c1=O [theophylline]
- improvement of symptoms in Parkinson's patients [2]: significant improvement of symptoms

Structure (SMILES): CCCn1c(=O)c2c(nc(/C=C/c3ccc(OC)c(OC)c3)n2C)n(CCC)c1=O [KF 17837]
- effect on experimentally induced cataleptic responses [3]: ameliorates
